Values after ≈ are worked out from the molar mass of the structure shown.
Experiment: Solubility in silicone oil at 25° C.
Settings: oil or lipid

Nc1nc2c(ncn2COCCO)c(=O)[nH]1 [acyclovir]
solubility: < 80 µg/mL

Cc1ncc([N+](=O)[O-])n1CCO [metronidazole]
solubility: 6 µg/mL (≈ 35.1 µM)

CC(C)N1CCN(c2ccc(OCC3COC(Cn4cncn4)(c4ccc(Cl)cc4Cl)O3)cc2)CC1 (stereo not shown) [terconazole]
solubility: 200 µg/mL (≈ 376 µM)

C[C@]12CC[C@H]3[C@@H](CCC4=CC(=O)CC[C@@]43C)[C@@H]1CC[C@@H]2O [testosterone]
solubility: 140 µg/mL (≈ 485 µM)

— patent US9993424B2, “Intravaginal matrix drug delivery devices” (Allergan Pharmaceuticals International Limited, priority 2002, dated 2018)
